Common to all, as to assay type: cell-based
Assay [1] has as its system human peripheral blood mononuclear cells (PBMCs). Briefly: Cell proliferation of LPS-challenged PBMCs by CellTiter-Glo (CTG). The following applies: human PBMCs. The source says: (§1) This study was aimed to test the effect of 12 compounds (THCA, Ia1, Ia5, Ia6, Ia9, Ia11, Ia15, Ia17, Ia24, Ia25, Ia27, and Ia28) on human peripheral blood mononuclear cells (PBMCs) challenged by lipopolysaccharide (LPS) through monitoring multiple inflammatory endpoints.
(§2) Blood samples were collected from healthy volunteers according to protocols that have been reviewed and approved by the Chempartner Institutional Ethic Committee (IEC) upon signing an Informed Consent Form (ICF).
(§3) Fresh PBMCs were isolated and seeded into 96-well plate, and diluted solutions of the tested compounds and 0.1 μg/mL LPS were then added (in triplicates). To serve as control, 3 wells with PBMCs only, 3 wells with 0.1 μg/mL LPS, and 2 wells with 1 μg/mL dexamethasone (Dex) and 0.1 μg/mL LPS were included. After 72 hours incubation, supernatant was collected for tumor necrosis factor-α (TNF-α) measurement by enzyme-linked immunosorbent assay (ELISA), and cell pellets were harvested for cell proliferation measurement by CellTiter-Glo® Luminescent Cell Viability Assay (CTG).
(§4) The human blood sample from an individual donor was diluted by the same volume of sterile phosphate buffered solution (PBS) and mixed sufficiently by gentle shake. 15 mL Lymphoprep™ medium was transferred into a new 50 mL centrifuge tube, and the diluted blood sample (30 mL) was then carefully added onto the surface of the medium, which consequently contained Ficoll 400 and blood in a volume ratio of 1:2. Four interfaces were observed after centrifugation, which are, from top to bottom, layers of plasma, mononuclear cells, Ficoll medium, and red blood cells (RBCs). Plasma was absorbed, and mononuclear cells were then transferred into another new sterile centrifuge tube. Then, sterile PBS buffer was added into the collected PBMCs for washing, at a volume ratio of 3:1. PBMCs were washed with 5-10 mL PBS twice before cell counting with cytometer. Cells were centrifuged at 350×g, for 10 min, at 20° C. with the acceleration (5) and deceleration (5) settings during the centrifugation. The cells were resuspended with RPMI 1640 complete medium (containing 10% FBS) for assay, and the density was adjusted with RPMI 1640 complete medium to the final concentration of 2E6 cells/mL. Cells suspension of the PBMCs (100 μL/well) were seeded into 96-well plate (#3903).
(§5) Diluted solutions of the tested compounds were prepared with RPMI 1640 complete medium according to the following layout. Compounds were prepared at 5-fold of concentration (50 μM), and then were diluted to the working concentration of 10 μM with RPMI 1640 complete medium and made 10-fold serially dilution (2 points). The diluted compounds (50 μL/well) were added to the indicated wells, and the plate was incubated at 37° C., 5% CO2, for 72 h.
(§6) LPS (0.1 μg/mL, 100 μL) was added into each well. Dex (1 μg/mL) was included as a positive control. Plate was incubated at 37° C., 5% CO2 for 72 h. Supernatant was collected to measure TNF-α by ELISA. Cell proliferation was detected by CTG.
A general note: ATP-based viability assays read luminescence as a measure of living cells.

The test system of the next assay is TNF-α. Briefly: LPS induced cytokine release assay, TNF-α by ELISA in PBMCs. The following applies: human PBMCs; for TNF-α: 72 h; for change of TNF-α expression in LPS-treated cells: tested concentrations of 1 M and 10 M (so in the source).
Description: as §1, §2, §3, §4, §5, §6
A general note: In an ELISA, binding on a coated surface is turned into a signal by an enzyme label.

Assay [2] deals with T47D, breast ductal carcinoma. Briefly: CellTiter-Glo cell viability assay, cancer cell cytotoxicity/anti-proliferation panel (Chempartner). The following applies: Table 5, T47D cells, 72 hours; for IC50: Homo sapiens, read-out: AbsIC50; for Inhibition %: 10 μM starting, 10-pt, 3-fold dilution. As to the method: In this study, the biological activity of certain compounds of the present invention on cancer cell cytotoxicity/anti-proliferation panel was tested using the CellTiter-Glo® cell viability assay. The compounds were dissolved in DMSO to make 10 mM solution.
The cell lines tested were all selected from the Chempartner's cell collection and included: Caco-2 ATCC colon adenocarcinoma; TE-6 RIKEN esophagus, carcinoma; PC-3 ATCC prostate adenocarcinoma; T47D, breast ductal carcinoma; U251, brain human glioma; A549, lung carcinoma; OMP-2, multiple myeloma; SK-HEP-1, liver adenocarcinoma; PANC-1, pancreas ductal carcinoma; AsPC-1, pancreas, ductal carcinoma; and U-87 MG, brain glioblastoma.
For the assays described herein, absolute inhibition of cells growth (%) and absolute IC50 (Abs IC50; […]) were used to derive a value that can be used to compare results within and across runs in the same assay, as well as between different assays.
• a. Prepare complete medium: Add FBS and appropriate additives according to the information sheet provided by the vendor. Mix gently. • b. Check the cell name and complete medium and passage number marked on the flask. For adherent cell lines, refer to c to k. For suspension cell lines, refer to g to k. • c. Remove and discard culture medium using a vacuum pump. • d. Briefly rinse the cell layer with 0.25% (w/v) trypsin-0.038% (w/v) EDTA solution to remove all traces of serum that contains trypsin inhibitor. • e. Add 3.0 ml of trypsin-EDTA solution to flask and observe cells under an inverted microscope until cell layer is dispersed. • f. Add 8.0 ml of complete growth medium and aspirate cells by gently pipetting. • g. Transfer the cell suspension to a centrifuge tube and centrifuge at 800-1000 rpm for 3-5 minutes. • h. Discard the supernatant using a vacuum pump. • i. Add appropriate volume of complete medium. Suspend the cell pellet by gently pipetting. • j. Count the cell numbers with Vi-cell XR and adjust cells to appropriate density. • k. Add 100 μL of cell suspension to 96-well opaque-walled clear bottom plates according to the planned plate layout and place the plates in the CO2 incubator overnight. • l. Plate layout:
• Plate preparation of testing articles. 10 mM stock solution of each one of the compounds (provided as powder) was prepared in DMSO. […] 0.5 μL of each of the diluted compounds was transferred to the wells containing 100 μL of the culture medium. The total dilution was 200 fold. Cells were incubated with the compounds for 72 hours at 5% CO2, 37° C.
• Thaw the CellTiter-Glo buffer and equilibrate to room temperature prior to use. • Equilibrate the lyophilized CellTiter-Glo substrate to room temperature prior to use. • Transfer the appropriate volume of CellTiter-Glo buffer into the amber bottle containing CellTiter-Glo substrate to reconstitute the lyophilized enzyme/substrate mixture. This forms the CellTiter-Glo reagent. • Mix by gently vortexing, swirling or by inverting the contents to obtain a homogeneous solution. The CellTiter-Glo substrate should go into solution easily in less than one minute.
• Observe the cell morphology under an inverted microscope after corresponding treatment. • Equilibrate the plate and its contents to room temperature for approximately 30 minutes. • Add 100 μL of CellTiter-Glo reagent to the assay plate by Multidrop Combi instrument. • Mix contents for 10 minutes on an orbital shaker to induce cell lysis. • Allow the plate to incubate at room temperature for 10 minutes to stabilize luminescent signal. • Paste the clear bottom with white back seal and record luminescence with Enspire. The settings should be: Luminescence, measurement time 0.1 ms.
Inhibition (%) and absolute IC50 (μM) of each compound was calculated with XLFit curve fitting software that is compatible to Activity Base.

The mark [3] stands for this setting: compound 1 μM + 0.1 μg/mL LPS, 72 h (LPS control 84.50).
[4] abbreviates: compound 10 μM + 0.1 μg/mL LPS, 72 h (LPS control 84.50).
Setting [5] is: compound 1 μM + 0.1 μg/mL LPS, ELISA (LPS control 18.16).
Setting [6] is: compound 10 μM + 0.1 μg/mL LPS, ELISA (LPS control 18.16).

Turning to `C[C@@H]1C[C@H]2[C@@H]3CCC4=CC(=O)C=C[C@]4(C)[C@@]3(F)[C@@H](O)C[C@]2(C)[C@@]1(O)C(=O)CO` [Dex, dexamethasone, reference compound], in assay [1] (1 μg/ml Dex + 0.1 μg/ml LPS + 0.1% DMSO, 72 h), the CTG signal is on record as 65.51 10^4. Also, the “decrease of the level of TNF-α as compared to LPS-treated cells” value in the assay on TNF-α (1 μg/mL Dex) was 2.5 folds. For the same compound, the TNF-α with TNF-α (1 μg/ml Dex + 0.1 μg/ml LPS + 0.1% DMSO) is 5.38 pg/mL.

For `CCCCCc1cc2c(c(O)c1C(N)=O)[C@@H]1C=C(C)CC[C@H]1C(C)(C)O2` [Ia1, (6aR,0aR)-1-hydroxy-6,6,9-trimethyl-3-pentyl-6a,7,8,10a-tetrahydro-6H-benzo[c]chromene-2-carboxamide], the CTG signal in assay [1] (setting [3]) was 74.10 10^4; in assay [1] (setting [4]), 70.03 10^4. Also, the TNF-α in the assay with TNF-α (setting [5]) worked out at 16.30 pg/mL; in the assay on TNF-α (setting [6]) it was 11.85 pg/mL.

In the case of `CCCCCc1cc2c(c(O)c1C(=O)NCCOC)[C@@H]1C=C(C)CC[C@H]1C(C)(C)O2` [Ia4, (6aR,0aR)-1-hydroxy-N-(2-methoxyethyl)-6,6,9-trimethyl-3-pentyl-6a,7,8,10a-tetrahydro-6H-benzo[c]chromene-2-carboxamide], in assay [2], the IC50 is above 10 µM and the Inhibition % was 3.13%.

With `CCCCCc1cc2c(c(O)c1C(=O)NCC1CC1)[C@@H]1C=C(C)CC[C@H]1C(C)(C)O2` [Ia5, (6aR,0aR)—N-(cyclopropylmethyl)-1-hydroxy-6,6,9-trimethyl-3-pentyl-6a,7,8,10a-tetrahydro-6H-benzo[c]chromene-2-carboxamide], the figures for the CTG signal in assay [1] (setting [3]) and in assay [1] (setting [4]) were 74.73 10^4 and 76.26 10^4, respectively. Further, the figures for the TNF-α with TNF-α (setting [5]) and with TNF-α (setting [6]) were 19.60 pg/mL and 32.33 pg/mL, respectively. Further, the “change of TNF-α expression in LPS-treated cells” value (“change of TNF-α expression” below) in the assay on TNF-α is “increased TNF-α expression”. Also, the IC50 in assay [2] is above 10 µM. In assay [2], this compound yielded an Inhibition % of 7.89%.

Take `CCCCCc1cc2c(c(O)c1C(=O)NCc1ccncc1)[C@@H]1C=C(C)CC[C@H]1C(C)(C)O2` [Ia11, 1-hydroxy-6,6,9-trimethyl-3-pentyl-N-(pyridin-4-ylmethyl)-6a,7,8,10a-tetrahydro-6H-benzo[c]chromene-2-carboxamide]: the CTG signal in assay [1] (setting [3]) is recorded as 72.49 10^4; in assay [1] (setting [4]), 74.91 10^4. Also, the TNF-α with TNF-α (setting [5]) is 28.40 pg/mL; in the assay on TNF-α (setting [6]) it was 15.39 pg/mL. Further, in the assay with TNF-α, the “change of TNF-α expression” value is recorded as “decreased TNF-α expression”. The IC50 in assay [2] was above 10 µM. The Inhibition % in assay [2] is 15.80%.

With `CCCCCc1cc2c(c(O)c1C(=O)Nc1ccc(N3CCOCC3)cc1)[C@@H]1C=C(C)CC[C@H]1C(C)(C)O2` [Ia17, (6aR,0aR)-1-hydroxy-6,6,9-trimethyl-N-(4-morpholinophenyl)-3-pentyl-6a,7,8,10a-tetrahydro-6H-benzo[c]chromene-2-carboxamide], the results for the CTG signal in assay [1] (setting [3]) and in assay [1] (setting [4]) were 74.83 10^4 and 72.61 10^4, respectively. In addition, the results for the TNF-α in the assay on TNF-α (setting [5]) and with TNF-α (setting [6]) were 16.44 pg/mL and 24.59 pg/mL, respectively. Further, the “change of TNF-α expression” value with TNF-α is “increased TNF-α expression”.

For the compound `CCCCCc1cc2c(c(O)c1CNCCCN1CCOCC1)[C@@H]1C=C(C)CC[C@H]1C(C)(C)O2` [Ia21, (6aR,10aR)-6,6,9-trimethyl-2-(((3-morpholinopropyl)amino)methyl)-3-pentyl-6a,7,8,10a-tetrahydro-6H-benzo[c]chromen-1-ol], in assay [2], the IC50 was above 10 µM and the Inhibition % is on record as 21.68%.

As to `CCCCCc1cc2c(c(O)c1-c1nnc(C)o1)[C@@H]1C=C(C)CC[C@H]1C(C)(C)O2` [Ia24, (6aR,0aR)-6,6,9-Trimethyl-2-(5-methyl-1,3,4-oxadiazol-2-yl)-3-pentyl-6a,7,8,10a-tetrahydro-6H-benzo[c]chromen-1-ol], the CTG signal in assay [1] (setting [3]) is 77.88 10^4; in assay [1] (setting [4]), 62.41 10^4. The TNF-α with TNF-α (setting [5]) is 32.33 pg/mL; in the assay with TNF-α (setting [6]), 28.53 pg/mL. Further, in the assay with TNF-α, the “change of TNF-α expression” value was “decreased TNF-α expression”.

For `CCCCCc1cc2c(c(O)c1C(=O)S)[C@@H]1C=C(C)CC[C@H]1C(C)(C)O2` [Ia25, (6aR,0aR)-1-hydroxy-6,6,9-trimethyl-3-pentyl-6a,7,8,10a-tetrahydro-6H-benzo[c]chromene-2-carbothioic S-acid], the CTG signal in assay [1] (setting [3]) is 83.27 10^4; in assay [1] (setting [4]) it was 75.29 10^4. In addition, the TNF-α in the assay with TNF-α (setting [5]) worked out at 42.50 pg/mL; in the assay with TNF-α (setting [6]), 36.82 pg/mL. Further, the “change of TNF-α expression” value in the assay on TNF-α is reported as “decreased TNF-α expression”.

Source of the values: US20210087159A1, “TETRAHYDROCANNABINOLIC- CA[…] DERIVATIVES AND USES THEREOF” (AL&AM […]., priority 2018, published 2021).
